Tested on: Nx rats (5/6 nephrectomy, hypertensive chronic kidney disease)
Experiment: Nx rats treated with various HIF prolyl hydroxylase inhibitors, change in systolic blood pressure after four weeks, Example 4
Format: in vivo, rat
Experimental: A characteristic pathophysiology found in the uremic chronic kidney disease (CKD) population is hypertension. […] (Priyadarshi et al. (2002) Kidney Int 61:542-546; Coleman et al. (2006) Proc Natl Acad Sci USA 103:5965-5970.) The surgical procedure used to generate the rat remnant kidney was performed according to modification of the procedure described by Priyadarshi et al. (supra) or according to modification of the procedure described by Tanaka et al. (2005, Lab Invest 85:1292-1307). Separate studies used either male Sprague Dawley rats (280-300 g) or female Wistar rats (220-250 g).
Animals were divided into two groups of which one group (sham) underwent sham surgery and the other group (Nx) was subjected to 5/6 nephrectomy as follows. Animals were anesthetized under isoflurane, and a midline abdominal incision was made, followed by blunt dissection of the renal pedicles. Two or three branches of the left renal artery were ligated to infarct two thirds of the left kidney, while the right kidney underwent simultaneous nephrectomy. The infarct was verified by observing the change in kidney color. Animal body temperature was maintained constant, and warm (˜37° C.) saline (1.0 mL) was administered directly into the abdomen. Thereafter, the incision was sutured and the animal was allowed to recover and have free access to regular food and water. Animal body weight and mortality were closely monitored.
Starting 35 days after surgery, Nx and sham animals were randomly divided into groups and treated with either vehicle or compound A. Compound was dosed three times per week by oral gavage at 20 or 40 mg/kg compound per dose. Blood pressure (BP) was measured using a Kent XBP1000 system (Kent Scientific Corp., Torrington, Conn.) or a Muromachi tail-cuff blood pressure system (Muromachi Kikai Co., Ltd., Tokyo, Japan), both having volume/pressure recording technology and used according to the manufacturer's instruction. Rats were slightly warmed under a lamp and conditioned carefully before the measurement. BP was recorded as the mean value of 3 separate measurements obtained at each session and reported herein as mean±SEM. Results are compared using 1-way analysis of variance (ANOVA) and Student-Newman-Keuls method (SigmaStat, SPSS Science, Chicago, Ill.).
In another series of experiments, rats subjected to 5/6 nephrectomy were treated 35 days after surgery according to the dosing schedule described in Example 3 above with a HIF prolyl hydroxylase inhibitor. Individual compound selected from the group consisting of compounds A and C-K were administered by oral gavage at 8, 20, 30, or 40 mg/kg (see Table 1 and Table 2). Systolic blood pressure was recorded at day 35 (baseline) and again immediately following the last dose of compound. Table 1 and Table 2 show changes in systolic blood pressure following four weeks of oral administration of various compounds of the present invention to Nx rats.

Compound	SBP (mmHg) Change from Vehicle (8 mg/kg oral) [mmHg]	SBP (mmHg) Change from Vehicle (20 mg/kg oral) [mmHg]	further results
COc1ccc(Oc2ccc3c(O)c(C(=O)NCC(=O)O)ncc3c2)cc1 [C, {[4-hydroxy-7-(4-methoxy-phenoxy)-isoquinoline-3-carbonyl]-amino}-acetic acid]			SBP (mmHg) Change from Baseline (30 mg/kg oral): −13.72 mmHg; SBP (mmHg) Change from Vehicle (30 mg/kg oral): −34.03 mmHg
CC(C)Oc1ccc2c(O)c(C(=O)NCC(=O)O)nc(C#N)c2c1 [Compound D, [(1-cyano-4-hydroxy-7-isopropoxy-isoquinoline-3-carbonyl)-amino]-acetic acid]	−12.4	−24.73	SBP (mmHg) Change from Baseline (8 mg/kg oral): −22.14 mmHg; SBP (mmHg) Change from Baseline (20 mg/kg oral): −9.25 mmHg
COc1cccc(Cn2ccc3c(O)c(C(=O)NCC(=O)O)nc(C#N)c32)c1 [E, {[7-cyano-4-hydroxy-1-(3-methoxy-benzyl)-1H-pyrrolo[2,3-c]pyridine-5-carbonyl]-amino}-acetic acid]		−18.55	SBP (mmHg) Change from Baseline (20 mg/kg oral): −7.12 mmHg
N#Cc1nc(C(=O)NCC(=O)O)c(O)c2ccn(Cc3ccc4ccccc4c3)c12 [F, [(7-cyano-4-hydroxy-1-naphthalen-2-ylmethyl-1H-pyrrolo[2,3-c]pyridine-5-carbonyl)-amino]-acetic acid]	−23.88		SBP (mmHg) Change from Baseline (8 mg/kg oral): −10.58 mmHg
N#Cc1nc(C(=O)NCC(=O)O)c(O)c2ccn(Cc3ccccc3F)c12 [G, {[7-cyano-1-(2-fluoro-benzyl)-4-hydroxy-1H-pyrrolo[2,3-c]pyridine-5-carbonyl]-amino}-acetic acid]	−19.27		
COc1ccc(Cn2c(Cl)c(Cl)c3c(O)c(C(=O)NCC(=O)O)nc(C#N)c32)cc1 [H, {[2,3-dichloro-7-cyano-4-hydroxy-1-(4-methoxy-benzyl)-1H-pyrrolo[2,3-c]pyridine-5-carbonyl]-amino}-acetic acid]		−15.73	
N#Cc1nc(C(=O)NCC(=O)O)c(O)c2c(Oc3ccccc3)cccc12 [I, [(1-cyano-4-hydroxy-5-phenoxy-isoquinoline-3-carbonyl)-amino]-acetic acid]		−11.00	
Cc1cccc(C)c1Oc1ccc2c(O)c(C(=O)NCC(=O)O)nc(C#N)c2c1 [J, {[1-cyano-7-(2,6-dimethyl-phenoxy)-4-hydroxy-isoquinoline-3-carbonyl]-amino}-acetic acid]	−2.66		
COc1ccc(Cn2cc(Br)c3c(O)c(C(=O)NCC(=O)O)nc(C#N)c32)cc1 [K, {[3-bromo-7-cyano-4-hydroxy-1-(4-methoxy-benzyl)-1H-pyrrolo[2,3-c]pyridine-5-carbonyl]-amino}-acetic acid]	−19.92		
